Holding throughout (assay): DTP human tumour cell line panel, 48 h
The subject of test [1] is A498.
Test [2] concerns A549.
In test [3] the test system is ACHN.
Test [4] has as its system CAKI-1.
For test [5], the system named is COLO 205.
In test [6] the test system is EKVX.
The subject of test [7] is HCC 2998.
In test [8] the test system is HCT-116.
Test [9] has as its system HOP-92.
The subject of test [10] is IGROV-1.
For test [11], the system named is LOX IMVI.
The subject of test [12] is MDA-MB-231.
Test [13] has as its system NCI-H226.
Test [14] has as its system NCI-H23.
Test [15] has as its system OVCAR-8.
Test [16] relates to SF-539.
The test system of test [17] is SK-MEL-28.
Test [18] deals with SK-MEL-5.
In test [19] the test system is U-251.
Test [20] deals with UO-31.

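Protocol summary: plate cells (96-well), add compound at 5 concentrations, incubate 48 h, interpolate endpoints linearly. The concentration for 50% growth inhibition is given as GI50.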 Active and inactive are the calls of the source. Cut-off read from the data, not from the text of the source: active = GI50 up to about 1.1 µM and inactive = higher.

In general, GI50 refers to the concentration giving 50% growth inhibition. With `COc1cc2c(cc1OCc1ccccc1)NC(=S)[C@@H]1CCCN1C2=S`, the GI50 in test [1] was > 100 µM (inactive); in test [2] it was 73.8 µM (inactive); in test [3] it was > 100 µM (inactive); in test [4] it was > 100 µM (inactive); in test [5], > 100 µM (inactive); in [6] it was > 100 µM (inactive). Besides, the GI50 in test [7] is > 100 µM (inactive); in test [8], > 100 µM (inactive); in [9], 94 µM (inactive); in test [10] it was 80.7 µM (inactive); in test [11], 55.5 µM (inactive); in test [12], 85.3 µM (inactive). Also, the GI50 is 93.5 µM (inactive) in [13]; > 100 µM (inactive) in [14]; 12.3 µM (inactive) in [15]; 17.4 µM (inactive) in test [16]; > 100 µM (inactive) in [17]; 62.8 µM (inactive) in test [18]. For the same compound, the GI50 in [19] is 49.4 µM (inactive); in test [20], > 100 µM (inactive).

For `CCCCN1CSC(=S)N(Cc2ccccc2)C1`, the GI50 in test [1] is > 62.1 µM (inactive); in test [2], 48 µM (inactive); in test [3], > 100 µM (inactive); in test [4], > 100 µM (inactive); in [5], 23.2 µM (inactive); in test [6] it was 30 µM (inactive). Also, the GI50 was 35.4 µM (inactive) in test [8]; > 75.9 µM (inactive) in [9]; 82.2 µM (inactive) in [10]; 36.9 µM (inactive) in test [11]; > 100 µM (inactive) in test [12]; > 68.5 µM (inactive) in test [13]. In addition, the GI50 in [14] was 42.6 µM (inactive); in test [15] it was 66.4 µM (inactive); in [16], > 100 µM (inactive); in [17], > 100 µM (inactive); in [18], 23.4 µM (inactive); in [19] it was 44.6 µM (inactive). The GI50 in test [20] was > 100 µM (inactive).

As for `COc1cc(CCC(=O)O)c2cc3ccccc3cc2c1O`, the GI50 in [1] was 33.6 µM (inactive); in test [2], 22.1 µM (inactive); in [3], 17.3 µM (inactive); in test [4], 19.6 µM (inactive); in test [5], 18 µM (inactive); in [6], 24.7 µM (inactive). For the same compound, the GI50 in test [7] is 29 µM (inactive); in test [8], 17.2 µM (inactive); in test [9], 30.9 µM (inactive); in test [10] it was 18.7 µM (inactive); in test [11] it was 21.5 µM (inactive); in test [12], 18.9 µM (inactive). For the same compound, the GI50 in [13] was 32.6 µM (inactive); in test [14], 19.1 µM (inactive); in test [15], 16.3 µM (inactive); in test [17], 22.4 µM (inactive); in test [18], 15.1 µM (inactive); in [19], 16.4 µM (inactive). Also, the GI50 in test [20] was 17.8 µM (inactive).

Turning to `Cc1cc2oc3c(ccc(=O)n3C)c(=O)c2c(C)c1Cl`, the GI50 was 46.8 µM (inactive) in [1]; 45 µM (inactive) in [2]; 57.4 µM (inactive) in [3]; 67.5 µM (inactive) in test [4]; 73.5 µM (inactive) in test [5]; 52 µM (inactive) in test [6]. Further, the GI50 in [7] is > 100 µM (inactive); in test [8], 34.9 µM (inactive); in test [9] it was 50.1 µM (inactive); in test [10], 32.1 µM (inactive); in test [11] it was 49.9 µM (inactive); in test [12] it was 31.8 µM (inactive). The GI50 in [13] was 35.6 µM (inactive); in test [14] it was 44.6 µM (inactive); in test [15], 76.2 µM (inactive); in test [16], 23.8 µM (inactive); in [17], 26.5 µM (inactive); in test [18], 29 µM (inactive). Further, the results for the GI50 in test [19] and in test [20] were 38.2 µM (inactive) and 73.5 µM (inactive), respectively.

For the compound `O=C(Nc1cccc(C(=O)NCCCO)c1)/C(=C/c1ccccc1)NC(=O)c1ccccc1`, the GI50 in test [1], in [2], in test [3], in test [4], in test [5] and in test [6] was > 100 µM (inactive) each time. Besides, the GI50 in [7], in test [8], in test [9], in test [10], in test [11] and in test [12] was > 100 µM (inactive) in each case. Moreover, the GI50 in test [13], in [14], in [15], in test [16], in test [17] and in [18] was > 100 µM (inactive) throughout. For the same compound, the GI50 in test [19] and in test [20] was > 100 µM (inactive) each time.

On to `CCOC1CC(=O)c2c(Br)sc(Br)c21` (centres undefined), for which the GI50 is 32.4 µM (inactive) in test [1]; 29.2 µM (inactive) in test [2]; 19.7 µM (inactive) in [3]; 17.3 µM (inactive) in [4]; 19.7 µM (inactive) in test [5]; 21.7 µM (inactive) in [6]. Besides, the GI50 was 21.9 µM (inactive) in [7]; 21.2 µM (inactive) in test [8]; 17.5 µM (inactive) in [9]; 15.5 µM (inactive) in test [10]; 19.5 µM (inactive) in test [11]; 19.5 µM (inactive) in test [12]. For the same compound, the GI50 in test [14] was 17.9 µM (inactive); in [15], 17.5 µM (inactive); in [16] it was 26.4 µM (inactive); in test [17], 19.6 µM (inactive); in test [18] it was 30.8 µM (inactive); in test [19], 16.9 µM (inactive). For the same compound, in test [20], the GI50 is 18.2 µM (inactive).

Regarding `C=C1c2nc3ccccc3n2C=C(c2ccccc2)N1c1ccc([N+](=O)[O-])cc1`, the GI50 was 8.38 µM (inactive) in test [1]; 2.31 µM (inactive) in test [2]; 1.67 µM (inactive) in test [3]; 9.2 µM (inactive) in [4]; 6.52 µM (inactive) in [5]; 4.85 µM (inactive) in [6]. The GI50 is 3.49 µM (inactive) in [7]; 2.52 µM (inactive) in [8]; 3.9 µM (inactive) in [9]; 4.84 µM (inactive) in test [10]; 5.36 µM (inactive) in [11]; 2.39 µM (inactive) in [12]. Further, the GI50 is 5.5 µM (inactive) in test [13]; 9.38 µM (inactive) in test [14]; 4.49 µM (inactive) in [15]; 1.05 µM (active) in test [16]; 24.6 µM (inactive) in test [17]; 4.02 µM (inactive) in [18]. In addition, the figures for the GI50 in test [19] and in test [20] were 5.33 µM (inactive) and 3.3 µM (inactive), respectively.

`CCN1C(=O)c2cc(OC)c(OC)cc2C(=O)C12OC(=O)c1cc3c(cc12)OCO3` (centres undefined): the GI50 is > 100 µM (inactive) in [1]; 36.9 µM (inactive) in test [2]; > 100 µM (inactive) in test [3]; > 100 µM (inactive) in test [4]; > 100 µM (inactive) in test [5]; > 100 µM (inactive) in test [6]. In addition, the GI50 in test [7] was 54.7 µM (inactive); in [8], 33.1 µM (inactive); in test [9] it was 55.3 µM (inactive); in test [10] it was 97.9 µM (inactive); in [11], 40.7 µM (inactive); in test [12], 41.4 µM (inactive). In addition, the GI50 is > 100 µM (inactive) in test [13]; > 100 µM (inactive) in test [14]; 48 µM (inactive) in [15]; 53.2 µM (inactive) in test [16]; > 100 µM (inactive) in [17]; 85.9 µM (inactive) in test [18]. Moreover, the GI50 is 43 µM (inactive) in test [19] and > 100 µM (inactive) in test [20].

Consider `COc1cccc(/C=C/C(=O)N2CC(CCl)c3c2cc(N)c2ccccc32)c1` (centres undefined), for which the GI50 is 0.00665 µM (active) in test [1]; 0.00153 µM (active) in test [2]; 0.000264 µM (active) in test [3]; 0.000566 µM (active) in [4]; 0.0146 µM (active) in [5]; 0.0142 µM (active) in test [6]. Also, the concentration for 50% growth inhibition (GI50) in [7] is 0.00242 µM (active); in test [8] it was 0.00109 µM (active); in [9] it was 0.0993 µM (active); in test [11], 0.000548 µM (active); in test [12], 0.0039 µM (active); in test [13], 0.0137 µM (active). Besides, the GI50 in test [14] is 0.00065 µM (active); in [15], 0.00109 µM (active); in test [17], 0.0114 µM (active); in [18] it was < 0.01 µM (active); in test [19], 0.000344 µM (active); in [20] it was 0.00171 µM (active).

As for `CN(NC(=O)c1cccs1)C1=NCCCN1`, the GI50 is > 100 µM (inactive) in [1]; > 100 µM (inactive) in test [2]; > 100 µM (inactive) in test [3]; > 100 µM (inactive) in test [5]; 85.9 µM (inactive) in test [6]; > 100 µM (inactive) in test [7]. Also, the GI50 in [8], in test [9], in test [10], in test [11], in test [12] and in [13] was > 100 µM (inactive) each time. In addition, the GI50 in [14], in test [15], in test [16], in [17], in [18] and in [19] was > 100 µM (inactive) in each case. For the same compound, the GI50 in test [20] was > 100 µM (inactive).

These data come from ChEMBL document CHEMBL1201862, “PubChem BioAssay data set” (2004).
